17 compounds from patent publication US20070043024A1, “Azacyclic compounds as inhibitors of sensory neurone specific channels” (priority 2003, published 2007) can be followed below.

The term IC50 denotes the midpoint of a concentration-inhibition curve.

SMILES strings stand for the structures.

For one assay, the target named is T1, human Nav1.8 (hNav1.8) ion channel (Homo sapiens, UniProt Q9Y5Y9).
T1 construct: expressed in transfected cells
T1 sequence (Q9Y5Y9 whole entry): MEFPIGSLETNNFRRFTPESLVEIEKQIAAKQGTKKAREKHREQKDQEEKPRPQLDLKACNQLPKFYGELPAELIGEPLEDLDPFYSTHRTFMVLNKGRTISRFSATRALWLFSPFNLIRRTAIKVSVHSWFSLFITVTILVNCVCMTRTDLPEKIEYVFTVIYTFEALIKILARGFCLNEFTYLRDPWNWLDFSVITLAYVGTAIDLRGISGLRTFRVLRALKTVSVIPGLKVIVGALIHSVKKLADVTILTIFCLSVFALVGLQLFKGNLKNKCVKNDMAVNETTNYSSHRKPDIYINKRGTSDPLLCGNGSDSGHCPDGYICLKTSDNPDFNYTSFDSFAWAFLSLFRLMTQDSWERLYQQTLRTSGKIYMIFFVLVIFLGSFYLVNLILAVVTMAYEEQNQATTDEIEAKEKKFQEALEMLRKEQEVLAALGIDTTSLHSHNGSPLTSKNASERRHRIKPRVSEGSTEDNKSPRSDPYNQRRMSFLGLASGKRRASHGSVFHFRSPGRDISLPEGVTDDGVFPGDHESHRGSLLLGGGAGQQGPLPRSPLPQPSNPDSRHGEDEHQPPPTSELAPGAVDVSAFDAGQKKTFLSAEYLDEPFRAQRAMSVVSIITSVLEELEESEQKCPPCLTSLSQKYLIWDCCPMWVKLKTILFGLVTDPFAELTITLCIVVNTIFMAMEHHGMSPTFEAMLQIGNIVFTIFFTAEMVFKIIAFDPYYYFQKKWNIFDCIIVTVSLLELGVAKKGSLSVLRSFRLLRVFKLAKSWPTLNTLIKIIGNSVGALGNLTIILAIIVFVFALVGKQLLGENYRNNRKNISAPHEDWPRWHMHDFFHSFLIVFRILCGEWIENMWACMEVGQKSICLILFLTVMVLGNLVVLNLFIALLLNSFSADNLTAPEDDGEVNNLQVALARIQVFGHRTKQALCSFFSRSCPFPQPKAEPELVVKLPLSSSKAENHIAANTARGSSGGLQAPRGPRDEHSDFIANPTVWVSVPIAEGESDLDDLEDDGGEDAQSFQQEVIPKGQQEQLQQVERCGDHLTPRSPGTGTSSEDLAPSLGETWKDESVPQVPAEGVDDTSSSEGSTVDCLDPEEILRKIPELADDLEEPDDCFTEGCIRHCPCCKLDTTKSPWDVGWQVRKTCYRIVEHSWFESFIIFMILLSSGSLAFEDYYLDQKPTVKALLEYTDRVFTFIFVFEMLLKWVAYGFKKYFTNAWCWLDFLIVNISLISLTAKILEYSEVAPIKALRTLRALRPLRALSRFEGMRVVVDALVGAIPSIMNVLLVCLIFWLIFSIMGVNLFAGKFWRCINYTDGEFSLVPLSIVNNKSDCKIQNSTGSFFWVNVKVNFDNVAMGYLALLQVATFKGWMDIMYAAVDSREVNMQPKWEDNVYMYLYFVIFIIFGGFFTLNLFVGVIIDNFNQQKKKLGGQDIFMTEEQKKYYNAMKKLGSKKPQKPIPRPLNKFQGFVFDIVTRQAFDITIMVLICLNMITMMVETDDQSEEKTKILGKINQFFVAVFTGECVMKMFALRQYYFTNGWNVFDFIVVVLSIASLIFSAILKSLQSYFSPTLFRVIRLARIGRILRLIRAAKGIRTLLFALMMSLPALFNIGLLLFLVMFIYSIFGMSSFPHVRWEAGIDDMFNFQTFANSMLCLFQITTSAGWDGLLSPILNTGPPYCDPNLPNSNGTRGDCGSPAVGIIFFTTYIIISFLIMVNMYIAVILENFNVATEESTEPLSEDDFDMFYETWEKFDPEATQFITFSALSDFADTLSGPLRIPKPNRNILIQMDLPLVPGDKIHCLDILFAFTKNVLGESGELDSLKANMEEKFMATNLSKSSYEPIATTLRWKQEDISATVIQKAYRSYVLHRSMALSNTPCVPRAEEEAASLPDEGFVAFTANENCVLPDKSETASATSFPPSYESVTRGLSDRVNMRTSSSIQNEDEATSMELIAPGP
The experiment in a line: Inhibition of human Nav1.8 stably expressed in SH-SY-5Y cells (membrane potential dye fluorescence assay). The format is cell-based. The settings on record: Table 1; SH-SY-5Y hNav1.8 cells, inhibition of membrane depolarisation, FLIPR membrane potential dye, 250 nM TTX, test concentration range 100 μM-0.05 μM; read-out: IC50.
In the case of `Oc1cccc2c1CN(CCN(Cc1ccccc1)Cc1ccccc1)CC2` [Example 8], the IC50 amounted to 410 nM. Take `Fc1ccc(C(CCCN2CCc3ccccc3C2)c2ccc(F)cc2)cc1` [Example 9, 2-[4,4-Bis-(4-fluoro-phenyl)-butyl]-1,2,3,4-tetrahydro-isoquinoline]: the IC50 is 430 nM. Regarding `COc1cccc2c1CN(CCCC(c1ccc(F)cc1)c1ccc(F)cc1)CC2` [Example 10, 2-[4,4-Bis-(4-fluoro-phenyl)-butyl]-8-methoxy-1,2,3,4-tetrahydro-isoquinoline], the IC50 came out at 480 nM. As for `Oc1cccc2c1CN(CC(c1ccccc1)c1ccccc1)CC2` [Example 11, 2-(2,2-Diphenyl-ethyl)-1,2,3,4-tetrahydro-isoquinoline-8-ol], the IC50 came out at 600 nM.

As to `c1ccc(C(CN2CCc3ccccc3C2)c2ccccc2)cc1` [Example 12, 2-(2,2-Diphenyl-ethyl)1,2,3,4-tetrahydro-isoquinoline], the IC50 stood at 990 nM. With `COc1cccc2c1CN(CC(c1ccccc1)c1ccccc1)CC2` [Example 13, 2-(2,2-Diphenyl-ethyl)-8-methoxy-1,2,3,4-tetrahydro-isoquinoline], the half-maximal inhibitory concentration (IC50) was found to be 1390 nM.

Take `O=C(CN1CCc2ccccc2C1)NC(c1ccccc1)c1ccccc1` [Example 14, N-Benzyhydryl-2-(3,4-dihydro-1H-isoquinolin-2-yl)-acetamide]: the IC50 worked out at 1590 nM. For the compound `O=C(CN1CCc2ccccc2C1)N(Cc1ccccc1)Cc1ccccc1` [Example 16, N,N-Dibenzyl-2-(3,4-dihydro-1H-isoquinolin-2yl)-acetamide], the half-inhibitory concentration (IC50) was found to be 880 nM.

The same assay, now with this note: Table 2 (compound numbers of the list in the description); SH-SY-5Y hNav1.8 cells, inhibition of membrane depolarisation, FLIPR membrane potential dye, 250 nM TTX, test concentration range 100 μM-0.05 μM; read-out: IC50.
Turning to `COc1ccc(C2COc3ccccc3N2C(=O)CN2CCc3cccc(OC)c3C2)cc1` (centres unmarked) [Compound 212, 2-(8-Methoxy-3,4-dihydro-1H-isoquinolin-2-yl)-1-[3-(4-methoxy-phenyl)-2,3-dihydro-benzo[1,4]oxazin-4-yl]-ethanone], the 50% inhibitory concentration (IC50) is 5060 nM. For the compound `COc1ccc(OC)c(C2COc3ccccc3N2C(=O)CN2CCc3cccc(OC)c3C2)c1` (centres unmarked) [Compound 213, 1-[3-(2,5-Dimethoxy-phenyl)-2,3-dihydro-benzo[1,4]oxazin-4-yl]-2-(8-methoxy-3,4-dihydro-1H-isoquinolin-2-yl)-ethanone], the 50% inhibitory concentration (IC50) stood at 8240 nM. As for `COc1cccc2c1CN(CC(=O)N1c3ccccc3OCC1c1ccc(NC(C)=O)cc1)CC2` (centres unmarked) [Compound 214, N-(4-{4-[2-(8-Methoxy-3,4-dihydro-1H-isoquinolin-2-yl)-acetyl]-3,4-dihydro-2H-benzo[1,4]oxazin-3-yl}-phenyl)-acetamide], the concentration for half-maximal inhibition (IC50) amounted to 6360 nM.

As to `COc1cccc2c1CN(CC(=O)N1c3ccccc3OCC1c1ccc(F)cc1)CC2` (centres unmarked) [Compound 215, 1-[3-(4-Fluoro-phenyl)-2,3-dihydro-benzo[1,4]oxazin-4-yl]-2-(8-methoxy-3,4-dihydro-1H-isoquinolin-2-yl)-ethanone], the IC50 turned out to be 1110 nM. Take `COc1ccc(C2COc3ccccc3N2C(=O)CN2CCc3cccc(OC)c3C2)cc1OC` (centres unmarked) [Compound 216, 1-[3-(3,4-Dimethoxy-phenyl)-2,3-dihydro-benzo[1,4]oxazin-4-yl]-2-(8-methoxy-3,4-dihydro-1H-isoquinolin-2-yl)-ethanone]: the IC50 was determined as 4310 nM. `COc1cccc2c1CN(C(C)C(=O)N1c3ccccc3Oc3ccccc31)C2` (centres unmarked) [Compound 217, 2-(4-Methoxy-1,3-dihydro-isoindol-2-yl)-1-phenoxazin-10-yl-propan-1-one]: the 50% inhibitory concentration (IC50) was found to be 1960 nM. As for `O=C(CN1c2ccccc2Oc2ccccc21)N1Cc2ccccc2C1` [Compound 218, 1-(1,3-Dihydro-isoindol-2-yl)-2-phenoxazin-10-yl-ethanone], the concentration for half-maximal inhibition (IC50) worked out at 12800 nM.

On to `O=C(CN1Cc2cccc(Cl)c2C1)N1c2ccccc2Oc2ccccc21` [Compound 219, 2-(4-Chloro-1,3-dihydro-isoindol-2-yl)-1-phenoxazin-10-yl-ethanone], for which the IC50 came to 800 nM. Consider `N#Cc1cccc2c1CN(CC(=O)N1c3ccccc3Oc3ccccc31)C2` [Compound 220, 2-(2-Oxo-2-phenoxazin-10-yl-ethyl)-2,3-dihydro-1H-isoindole-4-carbonitrile], for which the IC50 amounted to 800 nM.
